Molecules are shown by their SMILES.

Assay in all cases: PDSP off-target binding screen
Holding throughout (conditions): for inhibition at 10 µM: read-out: Primary screen AVE(%inhib)±SD; for Ki: read-out: Secondary screen Ki

Assay [1] concerns the target T1, Alpha1B (Homo sapiens, UniProt P35368).
T1 sequence (P35368 1-520): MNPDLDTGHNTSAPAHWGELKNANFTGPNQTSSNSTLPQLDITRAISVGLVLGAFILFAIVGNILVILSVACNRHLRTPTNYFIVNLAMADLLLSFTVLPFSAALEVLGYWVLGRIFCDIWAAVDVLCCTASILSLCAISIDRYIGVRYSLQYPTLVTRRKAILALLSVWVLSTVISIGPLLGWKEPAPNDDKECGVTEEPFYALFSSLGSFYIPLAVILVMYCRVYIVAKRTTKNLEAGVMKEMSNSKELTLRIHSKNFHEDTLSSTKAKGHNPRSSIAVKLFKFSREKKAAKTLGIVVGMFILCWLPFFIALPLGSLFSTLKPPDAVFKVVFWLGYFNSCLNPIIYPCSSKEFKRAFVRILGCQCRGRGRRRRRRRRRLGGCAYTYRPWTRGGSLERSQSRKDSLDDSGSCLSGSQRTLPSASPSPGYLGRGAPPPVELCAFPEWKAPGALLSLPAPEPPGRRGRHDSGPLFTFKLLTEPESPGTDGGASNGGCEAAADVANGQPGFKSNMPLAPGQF
The text has this: (§1) PDSP no. Compound Interactions (Ki, µM)
(§2) 60477 Allopole-A None observed.
(§3) trigger a secondary screen at that receptor.

Assay [2] has as its target T2, Alpha1D (Homo sapiens, UniProt P25100).
T2 sequence (P25100 1-572): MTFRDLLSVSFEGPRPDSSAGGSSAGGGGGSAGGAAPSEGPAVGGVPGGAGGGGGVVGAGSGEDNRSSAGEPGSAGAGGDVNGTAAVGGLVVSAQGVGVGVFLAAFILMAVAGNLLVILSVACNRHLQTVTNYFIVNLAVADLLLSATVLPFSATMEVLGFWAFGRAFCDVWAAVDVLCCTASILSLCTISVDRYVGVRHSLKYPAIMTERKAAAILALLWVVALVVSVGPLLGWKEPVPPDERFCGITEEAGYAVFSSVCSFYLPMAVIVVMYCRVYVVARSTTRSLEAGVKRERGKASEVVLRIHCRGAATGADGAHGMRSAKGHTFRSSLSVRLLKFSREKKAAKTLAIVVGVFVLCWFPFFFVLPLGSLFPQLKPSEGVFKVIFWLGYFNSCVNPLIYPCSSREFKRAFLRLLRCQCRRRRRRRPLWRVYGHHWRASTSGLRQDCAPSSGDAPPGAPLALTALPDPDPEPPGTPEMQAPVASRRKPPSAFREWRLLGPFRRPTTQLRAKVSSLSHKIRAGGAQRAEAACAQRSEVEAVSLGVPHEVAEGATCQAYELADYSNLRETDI
Source text: as §1, §2, §3

Assay [3] deals with T3, Alpha2B (Homo sapiens, UniProt P18089).
T3 sequence (P18089 1-450): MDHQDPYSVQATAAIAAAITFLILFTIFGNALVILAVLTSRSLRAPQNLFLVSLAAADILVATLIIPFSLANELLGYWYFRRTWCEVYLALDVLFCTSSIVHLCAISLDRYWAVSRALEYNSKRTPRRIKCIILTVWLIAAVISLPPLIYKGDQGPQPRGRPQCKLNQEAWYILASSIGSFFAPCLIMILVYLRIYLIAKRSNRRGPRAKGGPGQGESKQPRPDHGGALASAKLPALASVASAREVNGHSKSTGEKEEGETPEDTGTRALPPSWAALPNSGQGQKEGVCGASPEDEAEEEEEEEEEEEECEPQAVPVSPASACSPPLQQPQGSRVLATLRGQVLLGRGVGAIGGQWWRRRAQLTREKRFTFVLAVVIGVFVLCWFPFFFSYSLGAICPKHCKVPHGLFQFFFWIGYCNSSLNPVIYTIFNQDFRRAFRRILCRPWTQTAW
Source text: as §1, §2, §3

Assay [4] has as its target T4, M5 (Homo sapiens, UniProt P08912).
T4 sequence (P08912 1-532): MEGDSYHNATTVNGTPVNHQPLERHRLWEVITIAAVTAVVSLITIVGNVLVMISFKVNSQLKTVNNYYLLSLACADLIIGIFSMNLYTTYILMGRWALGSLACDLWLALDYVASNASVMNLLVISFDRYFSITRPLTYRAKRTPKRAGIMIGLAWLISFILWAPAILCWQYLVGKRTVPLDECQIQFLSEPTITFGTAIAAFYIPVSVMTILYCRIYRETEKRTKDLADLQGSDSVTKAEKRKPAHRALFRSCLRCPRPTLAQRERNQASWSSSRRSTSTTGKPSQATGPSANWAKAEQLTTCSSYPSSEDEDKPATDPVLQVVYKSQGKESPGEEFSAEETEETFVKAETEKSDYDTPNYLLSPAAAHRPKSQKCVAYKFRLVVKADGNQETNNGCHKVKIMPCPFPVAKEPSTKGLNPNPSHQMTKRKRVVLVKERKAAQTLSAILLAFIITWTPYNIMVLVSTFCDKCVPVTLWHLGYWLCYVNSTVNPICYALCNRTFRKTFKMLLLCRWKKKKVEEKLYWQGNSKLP
Source text: as §1, §2, §3

Assay [5] deals with H1 (Homo sapiens, UniProt P35367).
Source text: as §1, §2, §3

Assay [6] addresses T5, 5-HT1E (Homo sapiens, UniProt P28566).
T5 construct: NIMH Psychoactive Drug Screening Program (UNC)
Source text: as §1, §2, §3

The target of assay [7] is Sigma 1 (Homo sapiens, UniProt Q99720).
Source text: as §1, §2, §3

Assay [8] has as its target DOR (Homo sapiens, UniProt P41143).
Source text: as §1, §2, §3

Assay [9] deals with T6, 5-HT1B (Homo sapiens, UniProt P28222).
T6 construct: NIMH Psychoactive Drug Screening Program (UNC)
Source text: as §1, §2, §3

DOR, sequence (P41143 whole entry): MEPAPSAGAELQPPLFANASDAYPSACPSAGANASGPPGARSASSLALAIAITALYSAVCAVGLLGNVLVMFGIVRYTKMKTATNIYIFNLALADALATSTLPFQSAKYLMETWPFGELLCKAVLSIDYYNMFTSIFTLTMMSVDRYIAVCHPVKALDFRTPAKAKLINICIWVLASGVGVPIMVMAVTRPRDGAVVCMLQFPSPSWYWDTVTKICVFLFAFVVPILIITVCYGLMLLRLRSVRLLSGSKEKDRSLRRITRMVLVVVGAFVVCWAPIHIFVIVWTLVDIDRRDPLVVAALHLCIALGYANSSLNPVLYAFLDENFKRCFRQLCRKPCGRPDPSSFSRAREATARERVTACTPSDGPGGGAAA
T5 sequence (P28566 whole entry): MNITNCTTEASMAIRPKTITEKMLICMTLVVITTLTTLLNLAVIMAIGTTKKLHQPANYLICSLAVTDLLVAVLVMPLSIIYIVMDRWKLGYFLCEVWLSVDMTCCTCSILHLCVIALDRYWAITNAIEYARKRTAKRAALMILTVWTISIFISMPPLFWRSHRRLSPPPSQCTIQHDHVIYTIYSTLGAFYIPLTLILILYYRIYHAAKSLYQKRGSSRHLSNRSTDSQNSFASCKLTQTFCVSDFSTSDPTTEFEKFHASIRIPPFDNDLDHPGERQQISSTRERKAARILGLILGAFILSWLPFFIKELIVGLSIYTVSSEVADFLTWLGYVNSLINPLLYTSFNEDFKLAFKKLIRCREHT
Sigma 1, sequence (Q99720 whole entry): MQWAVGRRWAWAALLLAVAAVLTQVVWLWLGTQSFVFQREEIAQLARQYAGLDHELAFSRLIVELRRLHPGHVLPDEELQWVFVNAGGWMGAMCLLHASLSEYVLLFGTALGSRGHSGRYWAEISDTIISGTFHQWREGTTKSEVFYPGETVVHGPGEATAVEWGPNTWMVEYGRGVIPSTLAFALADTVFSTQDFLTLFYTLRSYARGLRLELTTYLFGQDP
H1, sequence (P35367 whole entry): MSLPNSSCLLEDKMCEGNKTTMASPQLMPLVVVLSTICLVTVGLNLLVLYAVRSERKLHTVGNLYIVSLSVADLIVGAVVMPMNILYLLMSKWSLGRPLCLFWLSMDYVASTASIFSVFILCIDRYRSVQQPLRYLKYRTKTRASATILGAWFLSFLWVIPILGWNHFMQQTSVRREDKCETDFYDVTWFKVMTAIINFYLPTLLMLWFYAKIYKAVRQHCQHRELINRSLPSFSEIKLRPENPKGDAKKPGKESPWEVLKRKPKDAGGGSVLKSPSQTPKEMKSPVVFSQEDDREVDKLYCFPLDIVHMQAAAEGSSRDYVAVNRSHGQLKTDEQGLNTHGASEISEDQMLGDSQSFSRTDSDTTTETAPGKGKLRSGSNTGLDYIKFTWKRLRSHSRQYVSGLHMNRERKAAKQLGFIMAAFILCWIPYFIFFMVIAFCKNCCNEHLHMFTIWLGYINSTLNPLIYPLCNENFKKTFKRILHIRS
T6 sequence (P28222 whole entry): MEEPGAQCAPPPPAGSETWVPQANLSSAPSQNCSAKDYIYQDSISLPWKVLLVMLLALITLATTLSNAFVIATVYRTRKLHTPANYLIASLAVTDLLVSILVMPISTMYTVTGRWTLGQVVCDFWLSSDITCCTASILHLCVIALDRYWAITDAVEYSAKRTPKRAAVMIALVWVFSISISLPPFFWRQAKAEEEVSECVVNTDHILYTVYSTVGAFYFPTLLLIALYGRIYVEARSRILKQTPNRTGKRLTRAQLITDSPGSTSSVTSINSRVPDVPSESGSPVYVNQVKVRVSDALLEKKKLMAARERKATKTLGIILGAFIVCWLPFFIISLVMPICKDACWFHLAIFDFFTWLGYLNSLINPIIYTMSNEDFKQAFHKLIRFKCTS

For `O=c1c2sc(Cl)cc2n2c(=S)[nH]nc2n1CC1CC1` [Allopole-A], the inhibition at 10 µM was -7.7 ± 9.7% in [1]; -9.9 ± 23.4% in assay [2]; -6.4 ± 7.1% in assay [3]; 130 ± 3% in assay [4]; 11.5 ± 2.8% in assay [5]; 31.3 ± 7.6% in assay [6]. The inhibition at 10 µM was 2 ± 21.4% in [7], -13.5 ± 6.8% in assay [8] and 17.7 ± 42.2% in assay [9]. Moreover, the Ki in [1], in assay [2], in assay [3], in [4], in [5] and in assay [6] was more than 10 µM in each case. In addition, the Ki in assay [7], in [8] and in [9] was more than 10 µM in each case.
As for `Cn1cnc([N+](=O)[O-])c1Sc1nnc2n(CC3CC3)c(=O)c3sc(Cl)cc3n12` [Allopole], the inhibition at 10 µM in assay [1] is -1.6 ± 9.5%; in assay [2], -15.1 ± 19.8%; in assay [3] it was 8.3 ± 16.4%; in assay [4] it was 95 ± 7.4%; in [5] it was 35.8 ± 11.9%; in assay [6], 22.2 ± 10.5%. The figures for the inhibition at 10 µM in [7], in assay [8] and in assay [9] were 41.8 ± 11.9%, -1 ± 4.8% and 60.8 ± 40.9%, respectively. Also, the Ki in assay [1], in assay [2], in assay [3], in [4], in [5] and in assay [6] was more than 10 µM each time. Moreover, the Ki in assay [7], in [8] and in [9] was more than 10 µM throughout.

A word on the Ki: it is the dissociation constant of the complex between target and ligand, obtained from inhibition or displacement.

Values taken from paper PMC10629583, “Specific inhibition of an anticancer target, polo-like kinase 1, by allosterically dismantling its mechanism of substrate recognition” (Proceedings of the National Academy of Sciences of the …, 2023).
